Experimental data from publication PMC6720259, “Phlorotannins with Potential Anti-Tyrosinase and Antioxidant Activity Isolated from the Marine Seaweed Ecklonia stolonifera” (Antioxidants, 2019).
Entries after “also recorded” stand apart in the source; their conditions may differ. Read-outs that look alike come from different tables or passages of the source.

Legend:
tyrosinase = test system: tyrosinase; set-up: method as in PMID 19490939; conditions: at 50 μM; cited from earlier work
mushroom tyrosinase [1] = target: T1, mushroom tyrosinase (Agaricus bisporus, UniProt C7FF04); assay: In vitro mushroom tyrosinase inhibitory assay (L-tyrosine and L-DOPA as substrates); assay type: biochemical; conditions: for IC50: mean ± SD of triplicates
T1 construct: purchased Sigma Aldrich
Description: Mushroom tyrosinase inhibitory activity was assessed by the method described by Kang et al. 2004 [17] with slight modifications.

[2] = ABTS•+ radical scavenging assay; conditions: mean ± SD of triplicates
Source text: This assay assesses the ability of different substances to scavenge ABTS radical cations (ABTS^•+) in comparison with the positive control, Trolox. The method was developed by Re et al. 1999 [21].

[3] = DPPH radical scavenging activity; conditions: mean ± SD of triplicates
Description: DPPH radical scavenging activity was evaluated by the method described by Blois, 1958 [19] with slight modifications. L-Ascorbic acid was used as a positive control.

[4] = ONOO− radical scavenging assay; conditions: mean ± SD of triplicates
Description: ONOO^− scavenging activity was assessed by a modified version of Kooy’s method, which monitors the production of fluorescent rhodamine 123 from non-fluorescent DHR 123 in the presence of ONOO^−. L-Penicillamine was used as a positive control.

[5] = test system: cellular tyrosinase of B16F10 cells; assay: Cellular TYR activity assay (L-DOPA oxidase activity); assay type: cell-based, mouse; conditions: for Cellular tyrosinase activity of α-MSH-stimulated B16F10 cells: 6.25-100 μM, α-MSH 3 μM, 24 h; for Inhibition of cellular tyrosinase compared with arbutin (500 μM): compound at 100 μM, α-MSH-stimulated B16F10 cells
Description: Cellular TYR activity was measured as L-DOPA oxidase activity by a previously described method with some modifications. Cells were seeded at 1 × 10^4 cells/well in a 24-well plate, incubated for 24 h and then stimulated with α-MSH (3 μM) in the presence or absence of 974-A, phlorofucofuroeckol-A, or eckol for 24 h. After treatment, the cells were washed with cold PBS and lysed with RIPA buffer. The cell lysates were centrifuged at 12,000 rpm for 10 min, and the supernatant was used as the cellular TYR solution. The reaction mixture, which contained 80 μL of the cell lysate and 20 μL of L-DOPA (20 mM), was incubated at 37 °C for 45 min. After the incubation, dopachrome formation was measured spectrophotometrically every 10 min for 45 min at 450 nm on a microplate reader (Molecular Devices). TYR activity was calculated as a percentage of the control.

mushroom tyrosinase [6] = target: T1, mushroom tyrosinase; assay: Kinetic analysis of mushroom tyrosinase inhibition (Lineweaver-Burk and Dixon plots); assay type: biochemical; conditions: for Ki: Dixon plot; for Type of inhibition, L-DOPA / Type of inhibition, L-Tyrosine: Lineweaver-Burk plot
Description: The inhibition mode and inhibition constant (Ki) for mushroom tyrosinase inhibition were calculated from the Lineweaver-Burk and Dixon plots. Kinetic parameters were obtained for various concentrations of the substrates (L-tyrosine and L-DOPA) and inhibitors (974-A, phlorofucofuroeckol-A and eckol). Graphs were generated with Sigma plot 12.0 (SPSS Inc., Chicago, IL, USA).

B16F10 melanoma cells [7] = assay: Cell viability (MTT) assay; assay type: cell-based, mouse; conditions: 6.25, 12.5, 25, 50, and 100 μM, with or without α-MSH co-treatment
Description: B16F10 mouse melanoma cells were obtained from the American Type Culture Collection (Manassas, VA, USA). Cells were cultured at 37 °C in high-glucose DMEM supplemented with 10% FBS, 100 U/mL penicillin, and 100 μg/mL streptomycin in a humidified atmosphere containing 5% CO2. The MTT assay was used to determine the cytotoxicity of 974-A, phlorofucofuroeckol-A, and eckol according to previously described methods with slight modifications. Briefly, B16F10 cells were seeded in a 96-well plate at 1 × 10^4 cells/well and incubated for 24 h in DMEM supplemented with 10% FBS. […] After 24-h incubation of the samples, the FBS-free DMEM was suctioned, and the cells were treated with an MTT solution (100 μL at 0.5 mg/mL in phosphate-buffered saline (PBS)) and incubated for 2 h. The proportion of surviving cells was determined after the medium was replaced with 100 µL of DMSO. […] The absorbance was measured at 570 nm on a microplate reader (Molecular Devices, Sunnyvale, CA, USA).

B16F10 melanoma cells [8] = assay: Melanin content assay in α-MSH-stimulated cells; assay type: cell-based, mouse; conditions: for Melanin content of α-MSH-stimulated B16F10 cells: 6.25-100 μM, α-MSH 3 μM, 24 h; for Inhibition of melanin content compared with arbutin (500 μM): compound at 100 μM, α-MSH-stimulated B16F10 cells
Description: The intracellular melanin content was determined according to a procedure described previously with minor modifications. Briefly, B16F10 cells were seeded in a 24-well plate at 1 × 10^4 cells/well and incubated for 24 h in DMEM containing 10% FBS. Cells were pretreated with various concentrations of 974-A, phlorofucofuroeckol-A, and eckol for 1 h, and then were stimulated with α-MSH (3 μM) for 24 h. The cells were washed with PBS, and were dissolved in 1 N NaOH containing 10% DMSO by being boiled at 80 °C for 30 min. The cell lysates were centrifuged at 14,000 rpm for 10 min, and the absorbance of the supernatant was measured at 405 nm on a microplate reader (Molecular Devices). The absorbance was normalized to the total protein content for the determination of the melanin content.

[9] = test system: tyrosinase, TRP-1, and TRP-2 expression in B16F10 cells; assay: Western blot analysis of melanogenic enzymes; assay type: cell-based, mouse; conditions: 12.5–50 μM, α-MSH-stimulated B16F10 cells
Description: B16F10 cells were stimulated with α-MSH in the presence or absence of compounds for the indicated times. The cells were then washed with ice-cold PBS and lysed with RIPA buffer on ice for 30 min. After centrifugation of the samples at 12,000× g for 20 min, the protein concentrations of the supernatants were determined. Aliquots of protein were resolved by sodium dodecyl sulfate-polyacrylamide gel electrophoresis (SDS-PAGE) and transferred onto a nitrocellulose membrane. The membrane was washed with Tris-buffered saline (TBS; 10 mM Tris-HCl, 150 mM NaCl, pH 7.5) supplemented with 0.05% Tween 20 (TBST), blocked with 5% skim milk (w/v) in TBST for 2 h and incubated for approximately 20 h with the primary antibodies. The immunoblots were then incubated with the appropriate secondary antibody coupled to horseradish peroxidase for 2 h, and protein levels were detected with an ECL detection kit. Densitometric analysis of data from at least three independent experiments was performed with a cooled CCD camera system and CS analyzer version 3.00 software. Fold-increases in protein expression were calculated versus normal controls. The experiments were repeated three times for each experimental condition.

IBMX-treated cells = test system: IBMX-treated cells; set-up: method as in PMID 19361156; conditions: cited from earlier work
[10] = test system: cellular melanin and tyrosinase; set-up: method as in earlier work; conditions: previous study; cited from earlier work
melanin synthesis = test system: melanin synthesis; set-up: method as in PMID 19490939; conditions: at 250 μM; cited from earlier work
[11] = substrate L-DOPA, read-out: IC50 Value, Mushroom Tyrosinase Inhibition, L-DOPA
[12] = substrate L-tyrosine, read-out: IC50 Value, Mushroom Tyrosinase Inhibition, L-Tyrosine
[13] = IC50 Value, Mushroom Tyrosinase Inhibition, L-DOPA, substrate L-DOPA
[14] = IC50 Value, Mushroom Tyrosinase Inhibition, L-Tyrosine, substrate L-tyrosine
[15] = substrate L-DOPA, read-out: Ki Value, L-DOPA
[16] = substrate L-tyrosine, read-out: Ki Value, L-Tyrosine

T1 sequence (C7FF04 1-392 limits assumed): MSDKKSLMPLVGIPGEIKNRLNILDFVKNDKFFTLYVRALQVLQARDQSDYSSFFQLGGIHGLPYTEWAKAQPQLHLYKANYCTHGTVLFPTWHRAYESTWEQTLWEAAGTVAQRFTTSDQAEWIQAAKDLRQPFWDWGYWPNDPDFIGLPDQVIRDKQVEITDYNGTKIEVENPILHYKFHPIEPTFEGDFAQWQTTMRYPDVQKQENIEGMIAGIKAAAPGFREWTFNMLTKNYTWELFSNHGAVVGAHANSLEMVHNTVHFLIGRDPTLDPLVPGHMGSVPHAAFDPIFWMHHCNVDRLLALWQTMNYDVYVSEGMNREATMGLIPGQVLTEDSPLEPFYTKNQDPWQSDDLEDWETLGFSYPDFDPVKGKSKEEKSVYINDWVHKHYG

Oc1cc(O)cc(Oc2c(O)cc(O)c3c2Oc2c(O)cc(Oc4c(O)cc(Oc5c(O)cc(O)c6c5Oc5c(O)cc(O)cc5O6)cc4O)cc2O3)c1 [Dieckol]
Tyrosinase inhibitory activity (tyrosinase): 88.9%

Oc1cc(O)cc(O)c1 [Phloroglucinol, phloroglucinol]
Inhibition of mushroom tyrosinase, either substrate (in words) (mushroom tyrosinase [1]; L-tyrosine and L-DOPA): No significant inhibition
IC50 (mushroom tyrosinase [1]; [11]): > 400 µM
IC50 (mushroom tyrosinase [1]; [12]): 251 ± 5.52 µM
IC50 [2]: 31.5 ± 1.68 µM
IC50 [3]: > 100 µM
IC50 [4]: 1.72 ± 0.59 µM

Oc1cc(O)cc(Oc2c(O)cc(O)c3c2Oc2c(O)cc4oc5c(Oc6cc(O)cc(O)c6)c(O)cc(O)c5c4c2O3)c1 [Phlorofucofuroeckol-A, phlorofucofuroeckol-A]
Cellular tyrosinase activity of α-MSH-stimulated B16F10 cells [5]: reduced the cellular melanin content and tyrosinase activity
Inhibition of cellular tyrosinase compared with arbutin (500 μM) [5]: more potent
Ki (mushroom tyrosinase [6]; Ki Value, L-DOPA, substrate L-DOPA): 7.14 µM
Ki (mushroom tyrosinase [6]; Ki Value, L-Tyrosine, substrate L-tyrosine): 2.7 µM
Type of inhibition, L-DOPA (mushroom tyrosinase [6]; substrate L-DOPA): Non-competitive
Type of inhibition, L-DOPA (mushroom tyrosinase [6]; substrate L-DOPA, listed as phlorofucofuroeckol-A): non-competitive
Type of inhibition, L-Tyrosine (mushroom tyrosinase [6]; substrate L-tyrosine): Non-competitive
Type of inhibition, L-Tyrosine (mushroom tyrosinase [6]; substrate L-tyrosine, listed as phlorofucofuroeckol-A): non-competitive
Cytotoxicity towards B16F10 melanoma cells (MTT) (B16F10 melanoma cells [7]): none of them exhibited significant cytotoxicity up to 100 μM
IC50 (mushroom tyrosinase [1]; [13]): 8.14 ± 0.29 µM
IC50 (mushroom tyrosinase [1]; [14]): 3.42 ± 0.01 µM
Melanin content of α-MSH-stimulated B16F10 cells (B16F10 melanoma cells [8]): reduced the cellular melanin content
Inhibition of melanin content compared with arbutin (500 μM) (B16F10 melanoma cells [8]): comparable to arbutin
IC50 [2]: 12.9 ± 0.95 µM
IC50 [3]: 1.92 ± 0.09 µM
IC50 [4]: 0.85 ± 0.1 µM
Expression of tyrosinase, TRP-1, and TRP-2 (Western blot) [9]: downregulated the expression of melanogenesis enzymes; also recorded: dose-dependently attenuated the expression of TYR, TRP-1, and TRP-2

7-phloreckol [Compound 7-phloreckol]
Melanin content of IBMX-treated cells (IBMX-treated cells): significantly and dose-dependently reduced the melanin content

CC(C)(S)C(N)C(=O)O (stereo in doubt) [Penicillamine, L-penicillamine, reference compound]
IC50 [4]: 1.07 ± 0.21 µM

Oc1cc(O)cc(Oc2c(O)cc(O)c3c2oc2cc(O)c4c(c23)Oc2c(O)cc(O)c(Oc3cc(O)cc(O)c3-c3c(O)cc(O)cc3Oc3c(O)cc(O)cc3Oc3c(O)cc(O)cc3O)c2O4)c1 [Compound 974-A, 974-A]
Cellular tyrosinase activity of α-MSH-stimulated B16F10 cells [5]: reduced the cellular melanin content and tyrosinase activity
Inhibition of cellular tyrosinase compared with arbutin (500 μM) [5]: as active
Ki (mushroom tyrosinase [6]; [15]): 3.33 µM
Type of inhibition, L-DOPA (mushroom tyrosinase [6]; substrate L-DOPA): Competitive
Ki (mushroom tyrosinase [6]; [16]): 0.69 µM
Type of inhibition, L-Tyrosine (mushroom tyrosinase [6]; substrate L-tyrosine): Competitive
Cytotoxicity towards B16F10 melanoma cells (MTT) (B16F10 melanoma cells [7]): none of them exhibited significant cytotoxicity up to 100 μM
IC50 (mushroom tyrosinase [1]; [11]): 3.56 ± 0.22 µM
IC50 (mushroom tyrosinase [1]; [12]): 1.57 ± 0.08 µM
Melanin content of α-MSH-stimulated B16F10 cells (B16F10 melanoma cells [8]): reduced the cellular melanin content
Inhibition of melanin content compared with arbutin (500 μM) (B16F10 melanoma cells [8]): comparable to arbutin
IC50 [2]: 6.29 ± 0.34 µM
IC50 [3]: 0.92 ± 0.11 µM
IC50 [4]: 0.26 ± 0.06 µM
Expression of tyrosinase, TRP-1, and TRP-2 (Western blot) [9]: downregulated the expression of melanogenesis enzymes; also recorded: dose-dependently attenuated the expression of tyrosinase, TRP-1, and TRP-2

O=C1O[C@H]([C@@H](O)CO)C(O)=C1O [Ascorbic acid, L-ascorbic acid, reference compound]
IC50 [3]: 0.69 ± 0.04 µM

Cc1c(C)c2c(c(C)c1O)CCC(C)(C(=O)O)O2 (centres unmarked) [Trolox, reference compound]
IC50 [2]: 18.4 ± 0.7 µM

Oc1cc(O)cc(Oc2c(O)cc(O)c3c2Oc2c(O)cc(O)cc2O3)c1 [Eckol, eckol]
Cellular tyrosinase activity of α-MSH-stimulated B16F10 cells [5]: reduced the cellular melanin content and tyrosinase activity
Inhibition of cellular tyrosinase compared with arbutin (500 μM) [5]: as active
Ki (mushroom tyrosinase [6]; [15]): 28.5 µM
Type of inhibition, L-DOPA (mushroom tyrosinase [6]; substrate L-DOPA): Non-competitive
Type of inhibition, L-DOPA (mushroom tyrosinase [6]; substrate L-DOPA, listed as eckol): non-competitive
Ki (mushroom tyrosinase [6]; [16]): 8.6 µM
Type of inhibition, L-Tyrosine (mushroom tyrosinase [6]; substrate L-tyrosine): Non-competitive
Type of inhibition, L-Tyrosine (mushroom tyrosinase [6]; substrate L-tyrosine, listed as eckol): non-competitive
Cytotoxicity towards B16F10 melanoma cells (MTT) (B16F10 melanoma cells [7]): none of them exhibited significant cytotoxicity up to 100 μM
IC50 (mushroom tyrosinase [1]; [13]): 29.6 ± 0.48 µM
IC50 (mushroom tyrosinase [1]; [14]): 9.12 ± 0.36 µM
Melanin content of α-MSH-stimulated B16F10 cells (B16F10 melanoma cells [8]): reduced the cellular melanin content
Inhibition of melanin content compared with arbutin (500 μM) (B16F10 melanoma cells [8]): more effective than arbutin
IC50 [2]: 5.01 ± 0.19 µM
IC50 [3]: 1.63 ± 0.65 µM
IC50 [4]: 0.73 ± 0.07 µM
Melanin levels and tyrosinase at a cellular level [10]: dose-dependently reduce melanin levels and inhibit tyrosinase at a cellular level
Expression of tyrosinase, TRP-1, and TRP-2 (Western blot) [9]: downregulated the expression of melanogenesis enzymes; also recorded: dose-dependently attenuated the expression of TYR, TRP-1, and TRP-2

CC1=C(/C=C/C(C)=C/C=C/C(C)=C/CO)C(C)(C)CCC1 [retinol]
Inhibition of melanin synthesis (melanin synthesis): 75.3%
